From ChEMBL document CHEMBL1201862, “PubChem BioAssay data set” (2004)
Active and inactive are the calls of the source. Cut-off read from the data, not from the text of the source, for most assays here: actives have a measured EC50 and inactives only a lower limit.

Experiments:
[1] = target: T1, Polyadenylate-binding protein 1 (Homo sapiens, UniProt P11940); assay: MLLE binding blockers, Cy5 peptide tracer – biochemical, fluorescence polarization, Cy5-PAM2 peptide, secondary, miRNA deadenylation inhibitor project, dose response (AID 602260); type: functional; settings: read-out: IC50_Mean
[2] = target: T1, Polyadenylate-binding protein 1; assay: MLLE domain peptide-binding blockers, IC50 – biochemical, fluorescence polarization, FITC-PAM2 peptide, dose response (AID 602259); type: functional; settings: read-out: IC50_Mean
[3] = target: T2, RNA-binding protein pos-1 (Caenorhabditis elegans, UniProt G5EF15); assay: disruptors of C. elegans POS-1 RNA interaction – biochemical, fluorescence polarization, dose response (AID 1964);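 note: purified POS-1 fused to maltose binding protein made in E. coli; potency of compounds blocking POS-1 binding to fluorescent RNA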
T2 sequence (G5EF15 whole entry): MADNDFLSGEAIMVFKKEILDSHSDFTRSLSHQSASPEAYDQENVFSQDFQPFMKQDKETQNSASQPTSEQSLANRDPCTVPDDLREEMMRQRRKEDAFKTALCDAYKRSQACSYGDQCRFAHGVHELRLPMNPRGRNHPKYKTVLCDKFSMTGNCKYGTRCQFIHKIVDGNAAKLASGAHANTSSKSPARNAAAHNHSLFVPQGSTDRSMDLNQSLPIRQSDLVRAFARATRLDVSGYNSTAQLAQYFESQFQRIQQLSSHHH

[4] = target: T3, Zinc finger protein mex-5 (Caenorhabditis elegans, UniProt Q9XUB2); assay: potency of MEX-5 RNA-binding blockers – biochemical, C. elegans, fluorescence polarization, dose response (AID 1960)
T3 sequence (Q9XUB2 whole entry): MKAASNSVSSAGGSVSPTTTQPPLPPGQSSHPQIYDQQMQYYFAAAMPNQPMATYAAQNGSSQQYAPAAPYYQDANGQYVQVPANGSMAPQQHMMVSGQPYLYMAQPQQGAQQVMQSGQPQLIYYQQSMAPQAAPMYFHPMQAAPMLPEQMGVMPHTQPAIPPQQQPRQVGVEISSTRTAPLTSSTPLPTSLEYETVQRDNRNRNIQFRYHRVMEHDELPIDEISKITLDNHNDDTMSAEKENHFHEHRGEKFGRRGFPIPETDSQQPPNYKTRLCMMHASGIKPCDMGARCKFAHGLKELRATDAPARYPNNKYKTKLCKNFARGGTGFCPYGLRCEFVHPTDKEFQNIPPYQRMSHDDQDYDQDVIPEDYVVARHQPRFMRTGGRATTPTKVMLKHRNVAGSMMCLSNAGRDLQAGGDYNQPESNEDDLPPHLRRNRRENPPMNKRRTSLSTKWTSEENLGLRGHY

[5] = target: Luciferin 4-monooxygenase (Photinus pyralis, UniProt P08659); assay: inhibition of purified Photinus pyralis luciferase – biochemical, luminescence, dose response (AID 1891)
[6] = Luminescence Cell-Based Dose Confirmation HTS to Identify Inhibitors of Platelet Dense Granule Release. [Related pubchem assays: 1663 (Primary HTS), 1678 (Summary of Project)]; type: functional
[7] = target: Nonstructural protein 1 (Influenza A virus, UniProt Q194T2); type: functional, Influenza A virus (A/California/07/2009(H1N1))
[8] = target: T4, Replicative DNA helicase DnaB (Mycobacterium tuberculosis, UniProt P9WMR3); assay: DnaB intein splicing inhibitors, dose response, biochemical, cell-free fluorescence (AID 449749); type: functional
T4 sequence (P9WMR3 whole entry): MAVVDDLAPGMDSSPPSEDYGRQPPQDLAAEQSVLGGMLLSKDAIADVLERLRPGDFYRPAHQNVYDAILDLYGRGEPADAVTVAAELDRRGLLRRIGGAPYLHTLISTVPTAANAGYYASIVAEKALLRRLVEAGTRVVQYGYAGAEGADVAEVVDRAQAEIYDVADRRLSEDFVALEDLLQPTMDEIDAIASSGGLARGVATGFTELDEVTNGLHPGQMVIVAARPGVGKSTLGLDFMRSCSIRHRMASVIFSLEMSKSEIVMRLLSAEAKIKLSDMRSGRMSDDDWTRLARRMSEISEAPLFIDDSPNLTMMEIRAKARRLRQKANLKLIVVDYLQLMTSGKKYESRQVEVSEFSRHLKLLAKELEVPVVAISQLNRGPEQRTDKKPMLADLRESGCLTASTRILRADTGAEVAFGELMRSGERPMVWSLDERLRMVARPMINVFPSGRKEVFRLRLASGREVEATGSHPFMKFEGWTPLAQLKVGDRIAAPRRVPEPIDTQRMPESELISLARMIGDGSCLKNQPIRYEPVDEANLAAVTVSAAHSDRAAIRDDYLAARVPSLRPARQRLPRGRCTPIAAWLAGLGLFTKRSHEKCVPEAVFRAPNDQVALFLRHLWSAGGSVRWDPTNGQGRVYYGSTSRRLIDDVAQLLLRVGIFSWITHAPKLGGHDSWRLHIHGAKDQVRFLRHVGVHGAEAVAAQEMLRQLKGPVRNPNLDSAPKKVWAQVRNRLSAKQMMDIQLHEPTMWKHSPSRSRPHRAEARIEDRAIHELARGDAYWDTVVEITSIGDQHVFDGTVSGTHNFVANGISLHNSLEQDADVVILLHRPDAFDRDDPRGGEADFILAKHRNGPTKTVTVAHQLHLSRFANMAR

[9] = target: T5, Protein RecA (Mycobacterium tuberculosis, UniProt P9WHJ3); assay: Fluorescence Cell-Free Homogeneous Dose Retest to Identify Inhibitors of RecA-Intein Splicing Activity. [Related pubchem assays (depositor defined):AID2097, AID2223, AID489010, AID492950]; type: functional
T5 sequence (P9WHJ3 whole entry): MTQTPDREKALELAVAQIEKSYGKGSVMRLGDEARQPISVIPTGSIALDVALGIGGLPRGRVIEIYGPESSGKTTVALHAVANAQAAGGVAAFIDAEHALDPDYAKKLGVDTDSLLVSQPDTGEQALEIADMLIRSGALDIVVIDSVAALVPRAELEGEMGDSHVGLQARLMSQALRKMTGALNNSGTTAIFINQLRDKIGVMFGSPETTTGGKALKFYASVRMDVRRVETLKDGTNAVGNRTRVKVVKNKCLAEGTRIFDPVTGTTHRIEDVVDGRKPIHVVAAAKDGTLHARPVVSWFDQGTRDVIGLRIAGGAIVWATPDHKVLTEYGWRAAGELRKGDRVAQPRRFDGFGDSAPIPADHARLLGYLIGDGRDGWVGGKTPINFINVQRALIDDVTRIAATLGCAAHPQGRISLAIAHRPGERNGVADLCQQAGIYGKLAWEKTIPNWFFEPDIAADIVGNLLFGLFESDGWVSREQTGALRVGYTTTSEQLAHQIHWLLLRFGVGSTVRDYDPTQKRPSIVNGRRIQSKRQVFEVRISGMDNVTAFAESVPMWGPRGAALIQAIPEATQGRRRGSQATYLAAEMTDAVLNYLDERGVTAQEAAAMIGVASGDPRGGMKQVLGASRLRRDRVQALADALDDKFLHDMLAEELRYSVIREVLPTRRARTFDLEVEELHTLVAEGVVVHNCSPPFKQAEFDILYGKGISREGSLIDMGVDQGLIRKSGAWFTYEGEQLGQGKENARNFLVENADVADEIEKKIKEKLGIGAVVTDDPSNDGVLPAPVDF

[10] = tested on: INS1; assay: INS-1E survival protection against cytokine death – cell-based, luminescence, retest, dose response (AID 449756); type: functional; settings: Rattus norvegicus;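 note: cell death triggered by IL-1 beta plus TNF-alpha plus IFN-gamma mixture; protective hits raise ATP signal compared with cytokine alone wells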
[11] = target: T6, Streptokinase A (Streptococcus pyogenes serotype M1, UniProt P10520); assay: viability-normalized secreted streptokinase activity reduction – plasminogen activation absorbance, OD405, dose response (AID 1914); type: functional, Streptococcus pyogenes M1 GAS;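 note: secreted streptokinase activity via plasminogen activation per viability signal from cell pellet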
T6 sequence (P10520 whole entry): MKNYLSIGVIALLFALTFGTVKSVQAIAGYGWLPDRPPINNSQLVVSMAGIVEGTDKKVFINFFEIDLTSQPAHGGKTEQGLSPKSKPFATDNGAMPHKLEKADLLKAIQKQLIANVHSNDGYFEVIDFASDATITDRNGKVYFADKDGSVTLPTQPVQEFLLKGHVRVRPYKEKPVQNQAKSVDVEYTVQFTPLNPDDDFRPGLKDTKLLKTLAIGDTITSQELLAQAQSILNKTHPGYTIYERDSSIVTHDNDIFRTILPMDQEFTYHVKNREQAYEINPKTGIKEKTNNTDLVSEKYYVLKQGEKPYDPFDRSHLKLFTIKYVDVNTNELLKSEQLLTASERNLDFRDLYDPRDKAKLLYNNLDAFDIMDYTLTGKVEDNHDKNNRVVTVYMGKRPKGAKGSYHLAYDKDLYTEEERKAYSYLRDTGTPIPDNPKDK

[12] = Luminescence Cell-Based Dose Response HTS to Identify Activators of Luciferase Translation or Activity in H4 […] Cells. [Related pubchem assays: 1829 (Project Summary), 1814 (Primary HTS)]; type: functional
[13] = tested on: H4; assay: Luminescence Cell-Based Dose Response HTS to Identify Activators of 5'UTR Stem-Loop Driven Prion Protein mRNA Translation in H4 Neuroglioblastoma Cells. [Related pubchem assays: 1829 (Project Summary), 1814 (Primary HTS)]; type: functional; settings: Homo sapiens
[14] = luciferase reporter signal suppression in cells – H4 neuroglioma cells, luminescence, dose response (AID 1990); type: functional, cell-based
[15] = Luminescence Cell-Based Dose Response HTS to Identify Inhibitors of 5'UTR Stem-Loop Driven Prion Protein mRNA Translation in H4 Neuroglioblastoma Cells. [Related pubchem assays: 1827 (Project Summary), 1813 (Primary HTS)]; type: functional
[16] = alpha-synuclein stem-loop luciferase translation blockers – H4 neuroglioma cells, luminescence, confirmation (AID 1988); type: functional, cell-based
[17] = Trypanosoma cruzi growth suppression in host cells – NIH3T3 host cells, beta-gal luminescence, confirmation (AID 2044); type: functional, cell-based;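 note: intracellular parasites grown in NIH/3T3 mouse fibroblasts as host cells; luminescent beta-galactosidase reporter signal from transgenic T. cruzi replicating inside host cells; inhibitors lower the luminescence signal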
[18] = NIH3T3 cell viability loss – ATP luminescence, mouse fibroblasts, counter-screen, dose response (AID 2010); type: functional, cell-based;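 note: cells exposed to compound for about 90 hours before reading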
[19] = Luminescence Cell-Based Dose Retest to Confirm Inhibitors of Cancer Stem Cells. [Related pubchem assays (depositor defined):AID2717, AID2721]; type: functional; settings: Homo sapiens

T1 sequence (P11940 whole entry, the tested form may be a part): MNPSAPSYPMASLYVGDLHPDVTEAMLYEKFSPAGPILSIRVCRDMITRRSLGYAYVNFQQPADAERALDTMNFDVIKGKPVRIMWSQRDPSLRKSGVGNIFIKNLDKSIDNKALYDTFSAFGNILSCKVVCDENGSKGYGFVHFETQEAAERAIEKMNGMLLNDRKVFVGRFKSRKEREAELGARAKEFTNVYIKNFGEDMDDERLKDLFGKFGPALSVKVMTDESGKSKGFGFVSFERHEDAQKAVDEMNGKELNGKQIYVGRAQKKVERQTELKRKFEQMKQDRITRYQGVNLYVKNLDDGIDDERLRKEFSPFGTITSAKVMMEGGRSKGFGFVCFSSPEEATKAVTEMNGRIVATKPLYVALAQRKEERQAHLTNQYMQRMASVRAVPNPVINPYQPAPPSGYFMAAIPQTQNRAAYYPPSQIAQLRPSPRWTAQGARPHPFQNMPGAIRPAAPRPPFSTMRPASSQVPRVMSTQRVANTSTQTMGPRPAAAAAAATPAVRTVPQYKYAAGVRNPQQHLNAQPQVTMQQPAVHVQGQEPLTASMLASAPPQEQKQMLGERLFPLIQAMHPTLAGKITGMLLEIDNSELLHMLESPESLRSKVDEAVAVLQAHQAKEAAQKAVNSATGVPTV
Sequence of Luciferin 4-monooxygenase (P08659 whole entry): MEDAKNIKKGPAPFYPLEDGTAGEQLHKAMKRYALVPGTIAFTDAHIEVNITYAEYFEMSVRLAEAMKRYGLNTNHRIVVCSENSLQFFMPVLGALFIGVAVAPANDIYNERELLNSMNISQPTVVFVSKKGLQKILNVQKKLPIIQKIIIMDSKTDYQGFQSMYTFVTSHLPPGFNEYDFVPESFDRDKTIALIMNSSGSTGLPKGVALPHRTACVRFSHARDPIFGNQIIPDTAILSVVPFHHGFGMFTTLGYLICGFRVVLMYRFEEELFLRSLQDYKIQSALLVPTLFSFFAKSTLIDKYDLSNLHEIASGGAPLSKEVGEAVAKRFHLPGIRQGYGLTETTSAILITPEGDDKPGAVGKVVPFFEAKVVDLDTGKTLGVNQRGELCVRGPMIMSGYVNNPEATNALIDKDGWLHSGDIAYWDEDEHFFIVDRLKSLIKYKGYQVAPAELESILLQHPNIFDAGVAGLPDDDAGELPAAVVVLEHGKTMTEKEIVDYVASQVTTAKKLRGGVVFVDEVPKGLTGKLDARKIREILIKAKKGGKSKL
Sequence of Nonstructural protein 1 (Q194T2 whole entry): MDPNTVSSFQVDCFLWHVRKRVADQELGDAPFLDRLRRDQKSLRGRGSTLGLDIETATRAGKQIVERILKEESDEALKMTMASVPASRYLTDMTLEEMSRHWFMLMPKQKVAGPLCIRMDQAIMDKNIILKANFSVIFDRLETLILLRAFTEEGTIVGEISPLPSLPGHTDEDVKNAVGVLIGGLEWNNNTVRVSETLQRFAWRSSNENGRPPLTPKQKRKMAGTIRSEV

For COc1ccc(NS(=O)(=O)c2ccc(F)c(Cl)c2)cn1, the IC50 [1] was 46.2 µM (inactive) and the IC50 [2] was 24.2 µM (inactive).

For Nc1ccc2c(c1)C/C(=C/c1ccco1)C2=O, the EC50 [3] was 23 µM (active) and the EC50 [4] was 14.3 µM (active).

For CCN(CC)C(=O)c1sc2nc(-c3cccs3)cc(-c3cccs3)c2c1N, the EC50 [3] was > 300 µM (not active) and the EC50 [4] was > 300 µM (not active).

With COc1ccc(NC(=O)c2ccc(OC(F)F)cc2)cc1Cl the EC50 [5] was 3.3 µM (active) and the EC50 [6] was 4.52 µM (active).

With CC1=CC(C)(C)N2C(=O)C3(C(C#N)=C(N)OC4=C3C(=O)CC(C)(C)C4)c3c(C)c(C)cc1c32 (centres undefined) the EC50 [3] was > 300 µM (not active) and the EC50 [4] was > 300 µM (not active).

With COc1ccc(C2=NN(c3ccccc3)C(=O)/C2=C\c2ccc(O)c(OC)c2)cc1 the IC50 [7] was 42.4 µM (active), the AC50 [8] was 2.29 µM (active) and the EC50 [9] was 1.42 µM (active).

With C=CCN1C(=O)/C(=C/C=C2/N(CC)c3ccc(S(=O)(=O)N(C)C)cc3N2CC)SC1=S the IC50 [7] was > 100 µM (active).

In the case of Fc1ccc(NC(S)=Nc2ccc(Br)cc2)cc1, the IC50 [1] is reported as > 66 µM (inactive) and the IC50 [2] is reported as > 66 µM (inactive).

With CCOC(=O)c1[nH]nc(-c2c(O)cc(C)cc2O)c1-c1csc(C)n1 the EC50 [5] was > 112 µM (not active) and the EC50 [6] was > 112 µM (not active).

In the case of COC(=O)c1ccccc1-n1c(CCC(=O)O)ccc1-c1ccc(F)cc1, the EC50 [3] is reported as > 300 µM (not active) and the EC50 [4] is reported as > 300 µM (not active).

In the case of Cc1ccc2oc(-c3ccc(NC(=O)c4cccnc4)cc3)nc2c1, the EC50 [5] is reported as > 112 µM (not active), the EC50 [6] is reported as > 112 µM (not active) and the AC50 [10] is reported as 7.77 µM (active).

For Cc1occc1C(=O)Nc1cc(C(C)(C)C)on1, the EC50 [5] was 2.78 µM (active) and the EC50 [6] was 3.46 µM (active).

In the case of Cc1cccc(NC(=S)Nc2ccc(Cl)c(Cl)c2)c1, the EC50 [11] is reported as 24.5 µM (active), the IC50 [1] is reported as > 66 µM (inactive) and the IC50 [2] is reported as > 66 µM (inactive).

In the case of O=C(CSc1n[nH]c2c3ccccc3nc-2n1)NCc1ccco1, the IC50 [1] is reported as > 66 µM (inactive) and the IC50 [2] is reported as > 66 µM (inactive).

With CCOC(=O)C1=C(C)NC(=O)NC1 the EC50 [5] was > 112 µM (not active) and the EC50 [6] was 5.87 µM (active).

With Cc1nn(CC(C)C)c(Cl)c1C(=O)NC1CCC(C)CC1 (centres undefined) the EC50 [12] was 0.258 µM (active) and the EC50 [13] was 1.19 µM (active).

In the case of O=C1CCn2c1c(O)c1ccccc1c2=O, the IC50 [1] is reported as > 66 µM (inactive) and the IC50 [2] is reported as 43.6 µM (inactive).

With Cc1ccc(-c2nc(/C=N/c3ccc(O)cc3)c(O)o2)cc1 the EC50 [3] was > 300 µM (not active) and the EC50 [4] was > 300 µM (not active).

For COc1ccccc1/C=N/Nc1nccnc1Cl, the EC50 [5] was 12.3 µM (active) and the EC50 [6] was 5.37 µM (active).

In the case of Cc1cc(C(=O)N/N=C/c2cc(Br)cc(Br)c2OC(=O)c2cccc(F)c2)[nH]n1, the EC50 [14] is reported as 8.5 µM (active), the EC50 [15] is reported as 8.33 µM (active) and the EC50 [16] is reported as 7.49 µM (active). For the same compound, the EC50 [17] was 1.01 µM (active), the EC50 [18] was > 60 µM (inconclusive) and the AC50 [19] was 3.46 µM (active). The AC50 [10] was 2.33 µM (active).

With CCCCOc1c(Br)cc(/C=N/O)cc1OCC the EC50 [3] was > 300 µM (not active) and the EC50 [4] was > 300 µM (not active).
